Reference: patent publication US20220381657A1, “METHOD FOR PREPARING BIOLOGICAL MATERIAL HAVING EXCELLENT LIGHT-TRANSMITTING PROPERTY” (RIKEN, priority 2016, published 2022)
Where two headings read alike, the source gives them in different places.

Assays:
[1] = for OD400: Table 1; for 400 nm: OD at 400 nm of the chemical
[2] = test system: fixed brain tissue suspension; assay: 1st delipidation assay: solubilization of fixed brain tissue suspension, turbidity at 600 nm; parameters: species or system mice
Procedure: Specifically, brains taken out of mice were sheared with a utility knife and then were disrupted by ultrasonication. To each of the resultant suspensions, an equal volume of 8% PFA solution was added to perform fixation at 4° C. for 1 hour. The resultant mixture was centrifuged to remove the supernatant, and the fixed brain tissue was washed with PBS for 3 times. PBS was added so as to obtain 2 mL of a fixed brain tissue suspension per brain. The fixed brain tissue suspension was diluted by 3.5 folds. To 20 μL of the resultant suspension, 130 μL of each 10 wt % chemical was added and was shaken at 37° C. overnight. Thus obtained mixed solutions were subjected to absorbance (turbidity) measurement at 600 nm. It is expected that a chemical solution which reduces the turbidity of a fixed brain suspension allows reducing light scattering by solubilizing lipids, which act as a scattering factor, in the brain tissue.

[3] = test system: bovine coagulated blood; assay: Decoloring screening: heme eluted from bovine coagulated blood (OD420-OD700); conditions: decolorization; for 700 nm calibrated 420 nm Average: OD420 calibrated by OD700; for integrated value 500-700 nm Average: integrated absorbance 500-700 nm
Procedure: A high-throughput screening system for evaluating the decoloring ability of various compounds was constructed. The screening system involved adding an aqueous solution of each compound to bovine coagulated blood and then measuring the absorbance of heme collected in the supernatant.
Specifically, to bovine blood, an equal amount of 8% PFA solution was added, and reacted at 4° C. overnight. The mixed liquid was centrifuged at 1500×g for 5 minutes, and the supernatant containing PFA was discarded. Then, the same amount of PBS as the original volume of blood was added to prepare a coagulated blood sample. To 150 μL of 10 wt % aqueous solution of each compound, 50 μL of the coagulated blood sample was added, and reacted at 37° C. overnight. The reaction solution was centrifuged at 1500×g for 5 minutes, and then 100 μL of the supernatant was added to a plate so as to be subjected to absorbance measurement. A sample which is suspended in water instead of being dissolved in the water has a weak decoloring effect, but none the less has a high absorbance value. […]

[4] = test system: Serius
[5] = Table 1, 10 wt % chemical, fixed mouse brain suspension, 37° C. overnight, PBS = 1.000

Compound	pH (Table 1)	OD400 [1]	1st delipidation assay Relative OD600 [2, 5]	700 nm calibrated 420 nm Average [3]	integrated value 500-700 nm Average [3]	pH ([…])	Fluorescence quench Average ([4]; relative fluorescence)	400 nm [1]	other results
CN1CCCC1 [#1295, 1-Methylpyrrolidine]	10.5	0.085	0.325	–	–	–	–	–	–
Dodecene-1 LAS [#0672]	–	–	–	1.45	1.41	–	–	–	Fluorescence quench Average [4]: 1.08; 1st delipidation assay Relative OD600 [2]: 0.152
CN1C2CCC1CC(O)C2 (stereo not shown) [#1462, Tropine]	–	–	0.292	–	–	–	–	–	–
Tween ® 80 [#1460]	5.7	0.065	0.095	–	–	–	–	–	–
Nonidet P-40 [#1511]	–	–	–	–	–	–	–	–	1st delipidation assay Relative OD600 [2]: 0.193
NCC1CCC(CN)CC1 (stereo not shown) [#0071, 1,4-Bis(aminomethyl) cyclohexane]	13.3	0.054	0.318	3.25	1.90	13.3	0.56	0.054	pH (Table 4): 13.27
CCCCCCCCCCCCOS(=O)(=O)[O-].[Li+] [#1310, Lithium dodecyl sulfate]	–	–	0.155	–	–	–	–	–	–
Isopropylamine [#1006]	–	–	0.318	–	–	–	–	–	–
N.O=C(O)C(F)(F)C(F)(F)C(F)(F)C(F)(F)C(F)(F)C(F)(F)C(F)(F)F [#1162, Ammonium pentadecafluorooctanoate]	–	–	0.318	–	–	–	–	–	–
CC(C)CCN [#1038, Isoamylamine]	9.6	0.055	0.247	–	–	–	–	–	–
CC(C)NCCCN [#1027, N-Isopropyl-1,3-diaminopropane]	13.4	0.061	0.219	1.52	1.24	13.4	0.55	0.061	–
CC1(C)CC(N)CC(C)(CN)C1 (stereo not shown) [#1602, Isophoronediamine]	10.8	0.051	0.190	2.08	1.26	10.8	0.53	0.051	–
OCC(O)c1ccccc1 (stereo not shown) [#1074, 1-Phenylethane-1,2-diol]	9.5	0.05	0.336	–	–	–	–	–	–
CCCCCCCCCS(=O)(=O)[O-].[Na+] [#0870, Sodium 1-nonanesulfonate]	6.8	0.047	0.247	–	–	–	–	–	–
CCCCCCCCCC(=O)N(C)CC(=O)[O-].[Na+] [#0703, N-Decanoylsarcosine sodium salt]	7.0	0.047	0.223	–	–	–	–	–	–
CC(O)CN(CCN(CC(C)O)CC(C)O)CCN(CC(C)O)CC(C)O (stereo not shown) [#1105, N,N,N′,N″,N″-Pentakis(2-hydroxypropyl) diethylene-triamine]	–	–	–	1.20	1.05	13.2	0.74	0.057	–
NCCCCCO [#0003]	–	–	–	1.83	1.21	12.5	0.63	0.052	–
CC(=O)O.CCCCCCCCCCCCN [#0627, Dodecylamine acetate]	10.3	0.053	–	2.21	1.74	10.3	1.05	0.053	–
CCCCCCCCCCCS(=O)(=O)[O-].[Na+] [#1419, Sodium 1-undecanesulfonate]	5.9	0.056	0.124	–	–	–	–	–	–
CCCCCCCCCCS(=O)(=O)[O-].[Na+] [#0625, Sodium 1-decanesulfonate]	5.9	0.046	0.325	–	–	–	–	–	–
c1cnc(N2CCNCC2)nc1 [#1167, 1-(2-Pyrimidyl) piperazine]	–	–	–	1.39	1.09	12.5	0.01	0.084	–

Compound	pH (Table 1)	OD400 [1]	1st delipidation assay Relative OD600 [2, 5]	700 nm calibrated 420 nm Average [3]	integrated value 500-700 nm Average [3]	pH ([…])	Fluorescence quench Average ([4]; relative fluorescence)	400 nm [1]	other results
COc1ccc(CO)cc1OC [#1422, Veratryl alcohol]	–	–	–	1.46	1.28	6.1	0.89	0.05	–
CCC(N)CCN (stereo not shown) [#0678]	–	–	–	1.71	1.15	13.6	0.60	0.049	–
OCCCC1CCN(CCO)CC1 [#1226, 1-(2-Hydroxyethyl)-4-(3-hydroxypropyl) piperidine]	–	–	–	2.20	2.29	14.1	0.76	0.05	–
C1CCNCC1 [#1097, Piperidine]	–	–	0.166	–	–	–	–	–	–
CC(C)(C)N(CCO)CCO [#0390, N-tert- Butyldiethanolamine]	12.7	0.052	0.318	–	–	–	–	–	–
Polyethylene glycol mono-4-octylphenyl ether [#1103]	–	–	–	–	–	–	–	–	1st delipidation assay Relative OD600 [2]: 0.184
NCCCCCCO [#0007, 6-Amino-1-hexanol]	–	–	–	2.66	1.76	11.9	0.22	0.093	–
c1cnccn1 [#1086]	–	–	–	1.41	1.39	8.6	0.67	0.051	–
NCC(O)CN [#1062]	–	–	–	1.13	0.80	12.8	0.67	0.054	–
CCCCCCCCCCCC[N+](C)(C)C.[Cl-] [#1021, Dodecyltrimethyl- ammonium chloride]	–	–	0.194	1.96	1.70	–	–	–	Fluorescence quench Average [4]: 1.11
CC(O)CN(CCN(CC(C)O)CC(C)O)CC(C)O (stereo not shown) [Quadrol ®, reference compound]	12.4	0.048	0.569	–	–	–	–	–	–
Isobutylamine [#1043]	–	–	0.251	–	–	–	–	–	–
Triton ™ X-100 [reference compound]	–	–	0.240	–	–	–	–	–	–
CCCCCCCCCCCCOS(=O)(=O)[O-].[Na+] [#1035, Sodium dodecyl sulfate]	6.3	0.048	–	1.28	1.32	6.3	1.15	0.048	–
OCCN(CCO)CCN(CCO)CCO [#1537, N,N,N′,N′-Tetrakis(2-hydroxyethyl) ethylenediamine]	–	–	–	1.29	1.63	11.7	0.66	0.048	–
C[C@H](CCC(=O)O)[C@H]1CC[C@H]2[C@@H]3[C@H](O)C[C@@H]4C[C@H](O)CC[C@]4(C)[C@H]3C[C@H](O)[C@]12C [#0566, Sodium Cholate]	–	–	–	–	–	–	–	–	1st delipidation assay Relative OD600 [2]: 0.254
C[N+](C)(C)Cc1ccccc1.[OH-] [#0387, Benzyltrimethyl- ammonium Hydroxide]	13.8	0.054	–	3.14	2.56	13.8	0.00	0.054	–
NCCCCN [#0783]	–	–	–	2.21	1.42	14.0	0.60	0.05	–
CCCCCCCCCCCC[N+](C)(C)CCCS(=O)(=O)[O-] [#0694]	–	–	–	2.24	2.53	8.4	1.09	0.055	–
CCCCNCCN [#0422, N-Butylethylenediamine]	12.7	0.05	0.307	–	–	–	–	–	–
